Tested on: NCI-H716 cells
Test: In vitro GLP-1 secretion-accelerating action: amount of active GLP-1 secreted (ELISA)
Type: cell-based
Conditions: 1 hour; for Significant difference (p < 0.05) vs control group, amount of active GLP-1 secreted: 10 mM, Student's t-test; for Amount of active GLP-1 secreted (relative value to control group as 100), average value: cyclic dipeptide 10 mM with 10 μM Sitagliptin phosphate, group with no cyclic dipeptide = 100
Experimental: Among the cyclic dipeptides, 92 highly water-soluble cyclic dipeptides were used in the following experiment. In each well of a Poly-L-Lysine 96-well plate, NCI-H716 cells suspended in 100 μL of a DMEM (with 10% FBS, 2 mM glutamine, and 1% antibiotics added in advance) were seeded at 0.5×10^5 cells/well, and cultured in a CO2 incubator (manufactured by ESPEC CORP.) for 48 hours. After washing with PBS(+), 100 μL of a PBS(+) solution with each cyclic dipeptide at a final concentration of 10 mM and 10 μM of Sitagliptin phosphate added therein was added to the cells. After 1 hour, the resultant solution was recovered, and the amount of active GLP-1 in the solution was measured by using the ELISA kit. In the analysis, the amount of active GLP-1 for a group with no cyclic dipeptide added was defined as 100, and relative values thereto were used.

SMILES	Significant difference (p < 0.05) vs control group, amount of active GLP-1 secreted (Table 1, Experiment 1)	Amount of active GLP-1 secreted (relative value to control group as 100), average value (Table 1, Experiment 1)	Significant difference (p < 0.05) vs control group, amount of active GLP-1 secreted (Table 5, Experiment 5)	Amount of active GLP-1 secreted (relative value to control group as 100), average value (Table 5, Experiment 5)	also measured
O=C1N[C@@H](CO)C(=O)N[C@H]1CO [compound 1, Cyclo(Ser-Ser)]	No	124			
O=C1CNC(=O)CN1 [compound 2, Cyclo(Gly-Gly)]			No	151	
C[C@@H]1NC(=O)[C@H](C)NC1=O [compound 3, Cyclo(Ala-Ala)]	No	95			
O=C1NCC(=O)N2CCC[C@@H]12 [compound 4, cyclo-glycyl-proline]			Yes	157	
C[C@H]1NC(=O)[C@@H]2CCCN2C1=O [compound 5, Cyclo(D-Ala-Pro)]	No	113			
O=C1[C@@H]2CCCN2C(=O)[C@@H]2CCCN12 [compound 6, Cyclo(Pro-Pro)]	No	87			
O=C1N[C@@H](Cc2ccccc2)C(=O)N[C@H]1CO [compound 7, Cyclo(Phe-Ser)]	No	106			
CC(C)[C@@H]1NC(=O)[C@@H]2CCCN2C1=O [compound 10, Cyclo(Val-Pro)]	No	95			
CC(C)C[C@@H]1NC(=O)[C@@H]2CCCN2C1=O [compound 19, cyclo-leucyl-proline]	Yes	173			
CC(C)C[C@@H]1NC(=O)CNC1=O [compound 21, Cyclo(Gly-Leu)]			No	131	
C[C@@H]1NC(=O)[C@H](CCC(N)=O)NC1=O [compound 23, Cyclo(Ala-Gln)]			No	99	
NC(=O)CC[C@@H]1NC(=O)CNC1=O [compound 24, Cyclo(Gln-Gly)]			No	89	
O=C1CNC(=O)[C@H](Cc2cnc[nH]2)N1 [compound 27, Cyclo(Gly-His)]			No	82	
O=C(O)C[C@@H]1NC(=O)CNC1=O [compound 32, Cyclo(Asp-Gly)]			Yes	12	
NC(=O)CC[C@@H]1NC(=O)CNC1=O [compound 36, Cyclo(Gln-Gly)]			No	75	
NCCCCC1NC(=O)C(CCCCN)NC1=O (stereo not drawn) [compound 40, Cyclo(Lys-Lys)]	No	164			
O=C(O)CCC1NC(=O)C2CCCN2C1=O (stereo not drawn) [compound 45, Cyclo(Glu-Pro)]	No	145			
O=C1NC(CO)C(=O)N2CCCC12 (stereo not drawn) [compound 46, Cyclo(Ser-Pro)]					Significant difference (p < 0.05) vs control group, amount of active GLP-1 secreted (Table 2, Experiment 2): No; Amount of active GLP-1 secreted (relative value to control group as 100), average value (Table 2, Experiment 2): 139
CC[C@H](C)[C@@H]1NC(=O)[C@@H]2CCCN2C1=O [compound 47, Cyclo(Ile-Pro)]					Significant difference (p < 0.05) vs control group, amount of active GLP-1 secreted (Table 2, Experiment 2): No; Amount of active GLP-1 secreted (relative value to control group as 100), average value (Table 2, Experiment 2): 79
O=C1N[C@@H](Cc2c[nH]c3ccccc23)C(=O)N2CCC[C@@H]12 [compound 57, Cyclo(Trp-Pro)]					Significant difference (p < 0.05) vs control group, amount of active GLP-1 secreted (Table 2, Experiment 2): No; Amount of active GLP-1 secreted (relative value to control group as 100), average value (Table 2, Experiment 2): 81
NCCCC[C@@H]1NC(=O)[C@@H]2CCCN2C1=O [compound 58, Cyclo(Lys-Pro)]					Significant difference (p < 0.05) vs control group, amount of active GLP-1 secreted (Table 2, Experiment 2): No; Amount of active GLP-1 secreted (relative value to control group as 100), average value (Table 2, Experiment 2): 91

Source: US20170143701A1, “CARBOHYDRATE METABOLISM-AMELIORATING AGENT” (SUNTORY HOLDINGS LIMITED, priority 2014, published 2017)
